We go through 42 substances from patent US20070203066A1, “Compositions and methods for inhibiting cellular proliferation” (priority 2005, published 2007).

Non-standard residues stand in square brackets, D forms with d. Primed or numbered codes have the meaning given here. No end group written: not given here. Ida(3) = iminodiacetic acid linker, Lys side-chain amines bound to its two carboxyl groups; Dip = N[C@H](C(=O)O)C(c1ccccc1)c1ccccc1; d(hPhe) = N[C@H](CCc1ccccc1)C(=O)O; Cha = N[C@@H](CC1CCCCC1)C(=O)O; Phg = N[C@H](C(=O)O)c1ccccc1 Where only a bound is given, the exact number is not on record here.

The term IC50 denotes the midpoint of a concentration-inhibition curve.

The subject of the assay is HUVECs. Format: cell-based. As to conditions: HUVEC proliferation, bFGF at 10 ng/ml or VEGF at 5 ng/ml, 48 hours, BrdU incorporation; read-out: IC50 on HUVECs. A digest of the protocol:
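Proliferation read-out: BrdU incorporation after 48-hour culture (37 ° C, 5% CO2) with graded peptide doses. Cells were in EBM with 2% FCS at 5,000 per well, driven by VEGF (5 ng/ml) or bFGF (10 ng/ml), added after ≥12-hour attachment.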
In general terms: Uptake of a labelled nucleoside into DNA is a usual measure of proliferation.

Turning to “341 (Ac-RRHRHQRVHIYFK(Ida(3))-NH2; also: homodimer via Lys13 side chain, Ida linker (Ida amino group Boc)) [compound 341]”, the IC50 is < 10 µM.

On to “343 (Ac-ARRRRQRVAIY[Phg]K-NH2; not fully specified (residue 13); also: homodimer via Lys13 side chain, Ida linker) [compound 343]”, for which the IC50 is < 10 µM. In the case of “344 (Ac-ARRRRQRVAIY[Cha]K-NH2; not fully specified (residue 13); also: homodimer: Lys13 side chains joined by Ida (iminodiacetic acid) linker) [compound 344]”, the IC50 is < 10 µM.

Take “345 (Ac-ARRRRQRVAIYWK-NH2; not fully specified (residue 13); also: homodimer of residues 1-13 via Ida linker on Lys13 side chain) [compound 345]”: the IC50 was < 10 µM.

For “346 (Ac-ARRRRQRVAIYEK-NH2; not fully specified (residue 13); also: homodimer of residues 1-13 via Ida linker on Lys13 side chain) [compound 346]”, the IC50 is > 30 µM. As for “347 (Ac-ARRRRQRVAIYTK-NH2; not fully specified (residue 13); also: homodimer of residues 1-13 via Ida linker on Lys13 side chain) [compound 347]”, the IC50 is > 30 µM. On to “348 (Ac-ARRRRQRVAIYHK-NH2; not fully specified (residue 13); also: homodimer of residues 1-13 via Ida linker on Lys13 side chain) [compound 348]”, for which the IC50 was > 30 µM.

Turning to “349 (Ac-ARRRRQRVAIYPK-NH2; not fully specified (residue 13); also: homodimer of residues 1-13 via Ida linker on Lys13 side chain) [compound 349]”, the IC50 is > 30 µM. With “350 (Ac-ARRRRQRVAIY[Dip]K-NH2; not fully specified (residue 13); also: homodimer of residues 1-13 via Ida linker on K13 side chain) [compound 350]”, the IC50 is < 10 µM. “351 (Ac-ARRRRQRVAIYGK-NH2; not fully specified (residue 13); also: homodimer of residues 1-13 via Ida linker on K13 side chain) [compound 351]”: the IC50 is > 30 µM. As to “352 (Ac-ARRRRQRVAIYIK-NH2; not fully specified (residue 13); also: homodimer of residues 1-13 via Ida linker on K13 side chain) [compound 352]”, the IC50 was < 10 µM. The figure for “353 (Ac-ARRRRQRVAIYYK-NH2; not fully specified (residue 13); also: homodimer of residues 1-13 via Ida linker on K13 side chain) [compound 353]” is > 30 µM. For “355 (Ac-ARRRR[dQ]RVAIIFK; not fully specified) [compound 355]”, the IC50 is > 30 µM. In the case of “356 (Ac-A[dR]RRRQRVAIIFK; not fully specified) [compound 356]” it was > 30 µM; in that of “357 (Ac-RRRRRQAVRIQIQFK; not fully specified) [compound 357]”, 10 to 30 µM; in that of “358 (Ac-RRRRRQAVRIDIDFK; not fully specified) [compound 358]”, > 30 µM. Consider “359 (Ac-RRRHHQHVRIYFK(Ida(3))-NH2; also: homodimer via Ida linker on Lys13 side chain, Boc on Ida amine) [compound 359]”, for which the IC50 is < 10 µM. Take “360 (Ac-RRRHRQHVHIYFK(Ida(3))-NH2; also: homodimer via Ida linker on Lys13 side chain, Boc on Ida amine) [compound 360]”: the IC50 was < 10 µM. “361 (Ac-ARRRRQRVAIYFK; not fully specified) [compound 361]”: the IC50 was > 30 µM. For the substance “362 (Ac-ARRRRQRVA[Cha]YFK-NH2; not fully specified (residue 13); also: homodimer: Lys13 side chains joined by Ida (iminodiacetic acid) linker) [compound 362]”, the IC50 is < 10 µM.

“363 (Ac-ARRRRQRVAWYFK-NH2; not fully specified (residue 13); also: homodimer of residues 1-13 via Ida linker on K13 side chain) [compound 363]”: the IC50 was < 10 µM. The figure for “364 (Ac-ARRRRQRVAEYFK-NH2; not fully specified (residue 13); also: homodimer of residues 1-13 via Ida linker on K13 side chain) [compound 364]” is > 30 µM; for “365 (Ac-ARRRRQRVATYFK-NH2; not fully specified (residue 13); also: homodimer of residues 1-13 via Ida linker on K13 side chain) [compound 365]” it is > 30 µM; for “366 (Ac-ARRRRQRVAHYFK-NH2; not fully specified (residue 13); also: homodimer of residues 1-13 via Ida linker on K13 side chain) [compound 366]” it is > 30 µM. In the case of “367 (Ac-ARRRRQRVAPYFK-NH2; not fully specified (residue 13); also: homodimer of residues 1-13 via Ida linker on K13 side chain) [compound 367]”, the IC50 is > 30 µM. For the substance “368 (Ac-ARRRRQRVA[Dip]YFK-NH2; not fully specified (residue 13); printed as [AcARRRRQRVA3,3-diphenylAlaYFK*]; also: homodimer via Ida linker on Lys13 side chain, Boc on Ida amine) [compound 368]”, the IC50 was < 10 µM.

Turning to “369 (Ac-ARRRRQRVAQYFK-NH2; not fully specified (residue 13); also: homodimer via Ida linker on Lys13 side chain, Boc on Ida amine) [compound 369]”, the IC50 was > 30 µM. In the case of “370 (Ac-ARRRRQRVAFYFK-NH2; not fully specified (residue 13); also: homodimer via Ida linker on Lys13 side chain, Boc on Ida amine) [compound 370]”, the IC50 is < 10 µM. Consider “371 (Ac-ARRRRQRVAYYFK-NH2; not fully specified (residue 13); also: homodimer via Ida linker on Lys13 side chain, Boc on Ida amine) [compound 371]”, for which the IC50 was < 10 µM. On to “373 (Ac-ARRRRQRVA[d(hPhe)]YFK(Ida(3))-NH2; also: homodimer via Ida linker on Lys13 side chain, Boc on Ida amine) [compound 373]”, for which the IC50 fell in the range of 10 to 30 µM. The figure for “374 (Ac-ARRRRQRVA[Phg]YFK(Ida(3))-NH2; also: homodimer via Ida linker on Lys13 side chain, Boc on Ida amine) [compound 374]” is < 10 µM; for “377 (Ac-ARRRRQRVAIMFK-NH2; not fully specified (residue 13); also: homodimer via Ida linker on Lys13 side chain, Boc on Ida amine) [compound 377]” it is < 10 µM; for “378 (Ac-ARRRRQRVAIQFK-NH2; not fully specified (residue 13); also: homodimer via Ida linker on Lys13 side chain, Ida amine Boc) [compound 378]” it is < 10 µM. In the case of “379 (Ac-ARRRRQRVAISFK-NH2; not fully specified (residue 13); also: homodimer via Ida linker on Lys13 side chain, Ida amine Boc) [compound 379]” it was < 10 µM. With “380 (Ac-ARRRRQEVAIYFK-NH2; not fully specified (residue 13); also: homodimer via Ida linker on Lys13 side chain, Ida amine Boc) [compound 380]”, the IC50 was < 10 µM. On to “382 (Ac-ARRRRQRVAIVFK-NH2; not fully specified (residue 13); also: homodimer via Ida linker on Lys13 side chain, Ida amine Boc) [compound 382]”, for which the IC50 was < 10 µM. With “383 (Ac-ARRRRQFVAIYFK-NH2; not fully specified (residue 13); also: homodimer via Ida linker on Lys13 side chain, Ida amine Boc) [compound 383]”, the IC50 was < 10 µM. Regarding “384 (Ac-ARRRRQGVAIYFK-NH2; not fully specified (residue 13); also: homodimer via Ida linker on Lys13 side chain, Ida amine Boc) [compound 384]”, the IC50 was < 10 µM. As to “385 (Ac-ARRRRQMVAIYFK-NH2; not fully specified (residue 13); also: homodimer via Ida linker on Lys13 side chain, Ida amine Boc) [compound 385]”, the IC50 is < 10 µM. For “386 (Ac-ARRRRQNVAIYFK-NH2; not fully specified (residue 13); also: homodimer via Ida linker on Lys13 side chain, Ida amine Boc) [compound 386]”, the IC50 was < 10 µM. On to “387 (Ac-ARRRRQAVEIYFK-NH2; not fully specified (residue 13); also: homodimer via Ida linker on Lys13 side chain, Ida amine Boc) [compound 387]”, for which the IC50 was < 10 µM. The figure for “388 (Ac-ARRRRQAVFIYFK-NH2; not fully specified (residue 13); also: homodimer via Ida linker on Lys13 side chain, Ida amine Boc) [compound 388]” is < 10 µM.
